# Tests used:
# [1] = tested on: 293S cells transfected with EP2; experiment: Kidney regeneration assay: induction of BMP-7 expression (Northern blot) in EP2 293S cells; assay type: cell-based, human; conditions: 10^-6M, RNA at 8, 16 and 24 hours, time dependent
# Protocol: (§1) The role of a prostaglandin agonist in kidney regeneration is investigated by the ability of Prostaglandin E2 (PGE2) or a prostaglandin agonist to induce the expression of Bone Morphogenetic Protein 7 (BMP-7) in wild type 293S cells and in 293S cells transfected with EP2.
# (§2) Methods: 293S and EP2 293S cells are grown in Dulbecco's Modified Egale medium (DMEM, Gibco, BRL; Gaithersburg, Md.). One day prior to treatment with PGE2 or a prostaglandin agonist, cells are plated at a density of 1.5×10^6 cells/10 cm dish. Generally about 16 to 24 hours later the cell monolayer is washed once with OptiMEM (Gibco, BRL; Gaithersburg, Md.) followed by the addition of 10 ml OptiMEM/dish in the presence and absense of vehicle (DMSO), PGE2 (10^−6M) or a prostaglandin agonist (10^−6M). Cells are harvested and RNA is extracted at 8, 16 and 24 hours. Northern blot analysis of total RNA ([…]) is carried out by probing the blots with ^32P-labeled BMP-7 probe. The blots are normalized for RNA loading by hybridization with ^32P-labeled 18s ribosomal RNA probe. […] Given the known role of BMP-7 in kidney regeneration and the ability of an prostaglandin agonist to induce BMP-7 expression in 293S kidney cells in a time and receptor specific manner indicates a role for prostaglandin agonist in kidney regeneration.
# wild type 293S cells = experiment: Kidney regeneration assay: induction of BMP-7 expression (Northern blot) in wild type 293S cells; assay type: cell-based, human; conditions: parental (wild type) 293S cell line; 10^-6M; 8, 16 and 24 hours
# Protocol: as §1, §2
# [2] = tested on: ovariectomized (OVX) rat model; conditions: model for postmenopausal osteoporosis, Ke et al., Bone 23:249-255, 1998; cited from earlier work
smiles,measurement,setting,value
"CCCCC[C@H](O)/C=C/[C@H]1[C@H](O)CC(=O)[C@@H]1C/C=C\CCCC(=O)O [PGE2, prostaglandin E2]",expression of Bone Morphogenetic Protein 7 (BMP-7),[1],induce the expression of BMP-7
same,expression of Bone Morphogenetic Protein 7 (BMP-7),wild type 293S cells,generally not observed
same,restoration of lost bone,[2],can restore lost bone

# From patent publication US7192979B2, “EP4 receptor selective agonist in the treatment of osteoporosis” (Pfizer Inc., priority 2000, dated 2007)
